Here are results for 3 compounds from paper PMC9162272 (Journal of Cardiovascular Pharmacology, 2022).

The assay has as its target PDE-III (Homo sapiens, UniProt Q14432). Description: Phosphodiesterase inhibition, purified PDE-III isozyme. Type of assay: biochemical. Conditions: for PDE-IV Versus PDE-III, IC50 Ratio: selectivity of inhibition of PDE-III over PDE-IV.
[1] abbreviates: read-out: PDE-III IC50, PDE-III isolated from human platelets, 30°C, 30 minutes, [3H]-cAMP 0.1 µM and cAMP 0.1 µM, duplicates.

Where two headings read alike, the source gives them in different places.

PDE-III, sequence (Q14432 whole entry): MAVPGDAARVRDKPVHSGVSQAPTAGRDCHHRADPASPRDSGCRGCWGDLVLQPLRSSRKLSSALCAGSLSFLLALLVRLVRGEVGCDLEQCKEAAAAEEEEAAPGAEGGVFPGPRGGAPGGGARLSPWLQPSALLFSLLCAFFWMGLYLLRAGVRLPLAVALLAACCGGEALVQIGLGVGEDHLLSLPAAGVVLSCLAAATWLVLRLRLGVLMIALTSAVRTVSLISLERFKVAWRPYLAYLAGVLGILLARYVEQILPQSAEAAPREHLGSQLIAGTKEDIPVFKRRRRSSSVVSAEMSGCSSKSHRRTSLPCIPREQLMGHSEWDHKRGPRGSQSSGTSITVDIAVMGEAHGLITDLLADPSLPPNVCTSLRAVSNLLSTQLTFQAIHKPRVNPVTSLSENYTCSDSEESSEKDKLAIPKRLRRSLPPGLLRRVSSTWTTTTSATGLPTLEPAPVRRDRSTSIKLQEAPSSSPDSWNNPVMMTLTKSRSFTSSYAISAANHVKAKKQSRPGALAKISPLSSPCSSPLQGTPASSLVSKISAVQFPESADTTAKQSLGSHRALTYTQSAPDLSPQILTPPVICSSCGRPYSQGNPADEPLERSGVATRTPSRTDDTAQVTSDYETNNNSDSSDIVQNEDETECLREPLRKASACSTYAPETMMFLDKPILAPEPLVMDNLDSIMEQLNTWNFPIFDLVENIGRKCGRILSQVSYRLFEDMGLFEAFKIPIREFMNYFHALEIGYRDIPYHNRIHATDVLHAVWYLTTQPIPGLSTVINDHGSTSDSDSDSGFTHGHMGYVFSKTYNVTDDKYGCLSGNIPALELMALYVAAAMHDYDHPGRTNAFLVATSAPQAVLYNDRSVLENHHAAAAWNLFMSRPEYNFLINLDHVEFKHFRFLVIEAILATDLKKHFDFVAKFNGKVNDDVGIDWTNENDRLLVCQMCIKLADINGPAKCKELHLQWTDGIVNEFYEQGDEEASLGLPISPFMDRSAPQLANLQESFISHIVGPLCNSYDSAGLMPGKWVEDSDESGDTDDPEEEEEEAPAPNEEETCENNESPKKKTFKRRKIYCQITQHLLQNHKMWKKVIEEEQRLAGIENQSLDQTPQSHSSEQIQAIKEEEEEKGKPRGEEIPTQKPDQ

As to `CC(=O)Nc1ccc(C2=NNC(=O)C[C@H]2C)cc1` [OR-1896], the “PDE-IV Versus PDE-III, IC50 Ratio” value is recorded as 3043. In addition, the IC50 under setting [1] came out at 0.094 µM.

For the compound `C[C@@H]1CC(=O)NN=C1c1ccc(N)cc1` [OR-1855], the “PDE-IV Versus PDE-III, IC50 Ratio” value is on record as 100. The IC50 under setting [1] was 5 µM.

Regarding `C[C@@H]1CC(=O)NN=C1c1ccc(NN=C(C#N)C#N)cc1` [Levosimendan, levosimendan, reference compound], 0.0021 µM corresponded to half-maximal inhibition (IC50) and the “PDE-IV Versus PDE-III, IC50 Ratio” value worked out at 7619.
